Laboratory results published in BigSolDB 2.1.

NC(N)=NC(N)=NCCc1ccccc1
solubility (mole fraction)
Settings	278.15 K	283.15 K	288.15 K	293.15 K	298.15 K	303.15 K	308.15 K	313.15 K	318.15 K	323.15 K
in 1,4-dioxane	–	–	0.000166	0.000202	0.000249	0.000312	0.000379	0.00046	0.000551	0.00065
in DMF	0.0158	0.0191	0.0226	0.0256	0.0303	0.0353	0.0411	0.0491	0.0579	0.0655
in DMSO	–	–	–	0.0217	0.025	0.0305	0.0359	0.0431	0.0508	0.0603
in NMP	0.0113	0.014	0.017	0.0202	0.0235	0.028	0.0337	0.0409	0.0486	0.0579
in acetonitrile	0.000211	0.00026	0.000322	0.000398	0.000494	0.000596	0.00071	0.00084	0.00101	0.00119
in ethanol	0.00183	0.0022	0.00266	0.00322	0.00378	0.00449	0.00524	0.00614	0.00723	0.00847
in ethyl acetate	0.00157	0.00184	0.0022	0.00265	0.00318	0.00379	0.00445	0.00521	0.00603	0.00695
in ethylene glycol	0.0033	0.00366	0.00417	0.00481	0.00567	0.00677	0.00774	0.00919	0.011	0.0128
in isobutanol	0.000518	0.00063	0.000792	0.00095	0.00116	0.00139	0.00167	0.00197	0.00229	0.00265
in isopropanol	0.000814	0.000976	0.00118	0.00142	0.00174	0.00208	0.00247	0.00288	0.00334	0.00383
in methanol	0.00237	0.0028	0.00328	0.00385	0.00457	0.00532	0.00623	0.00743	0.00823	0.0103
in n-butanol	0.000627	0.000777	0.000923	0.00118	0.00142	0.00167	0.00194	0.00227	0.00265	0.00308
in n-propanol	0.000975	0.00116	0.00137	0.00173	0.00208	0.00249	0.0029	0.00341	0.00396	0.00452
in water	0.000389	0.000481	0.000585	0.000739	0.000888	0.00107	0.00126	0.00148	0.00175	0.00206
